# PMC13059744 (mBio, 2026)
# System: cabABC promoter (PcabABC-luc) in S. mitis G22
# Test: cabABC expression, PcabABC-luc reporter in S. mitis G22
# Format: cell-based, Streptococcus mitis
# Conditions: after CSPG22 treatment in acidic medium; Fig. S3B
sequence,measurement,value
ESRLSRLLRDFIFQIKQ [CSPG22],time of peak cabABC expression post-induction,approximately 70 min
